What all share (test): DTP human tumour cell line panel, 48 h
Assay [1] deals with MDA-N.
Assay [2] has as its system HCC 2998.
In assay [3] the test system is SK-MEL-28.
For assay [4], the system named is HOP-92.
Assay [5] relates to OVCAR-3.
Assay [6] has as its system A549.
The subject of assay [7] is SK-MEL-2.
Assay [8] has as its system Malme-3M.
Assay [9] concerns IGROV-1.
The test system of assay [10] is SW-620.
Assay [11] has as its system CAKI-1.
Assay [12] deals with SF-268.
For assay [13], the system named is NCI-H226.
The subject of assay [14] is LOX IMVI.
Assay [15] has as its system 786-0.
The subject of assay [16] is MDA-MB-231.
Assay [17] has as its system M14.
Assay [18] has as its system SR.
For assay [19], the system named is KM12.
Assay [20] deals with RXF 393.

Structures are written as SMILES.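 Protocol summary: plate cells (96-well), add compound at 5 concentrations, incubate 48 h, interpolate endpoints linearly. GI50 = concentration required for 50% inhibition of growth.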 The source made the active and inactive calls. No stated cut-off is given here; in the data, active = GI50 up to about 1.1 µM and inactive = higher.

The term GI50 denotes the concentration that inhibits growth by half. On to `COc1ccc2nc3cc(Cl)ccc3c(NCCCNCCCNc3c4ccc(Cl)cc4nc4ccc(OC)cc34)c2c1`, for which the GI50 in assay [1] is < 0.01 µM (active); in assay [2] it was 0.0178 µM (active); in assay [3], 0.133 µM (active); in assay [4], 0.0719 µM (active); in assay [5], 0.162 µM (active); in [6], 0.0132 µM (active). Besides, the GI50 in assay [7] is 0.0404 µM (active); in assay [8] it was 0.0604 µM (active); in assay [9] it was 0.0164 µM (active); in assay [10], 0.0131 µM (active); in assay [11] it was 0.0156 µM (active); in [12], 0.0111 µM (active). The GI50 in assay [13] was < 0.01 µM (active); in assay [14], < 0.01 µM (active); in assay [15] it was < 0.01 µM (active); in assay [16], < 0.01 µM (active); in assay [17], 0.0266 µM (active); in [18], < 0.01 µM (active). Moreover, the concentration for 50% growth inhibition (GI50) in [19] is 0.0208 µM (active); in assay [20] it was 0.224 µM (active).

With `BrCCC[P+](c1ccccc1)(c1ccccc1)c1ccccc1`, the GI50 in assay [1] is 8.2 µM (inactive); in assay [2], > 68.4 µM (inactive); in [3], 19 µM (inactive); in [4] it was 8 µM (inactive); in [5] it was 3.44 µM (inactive); in assay [6], 25.6 µM (inactive). Besides, the GI50 in [7] is 26.7 µM (inactive); in assay [8] it was 16.2 µM (inactive); in assay [9], 5.45 µM (inactive); in [10], 25.5 µM (inactive); in assay [11], > 100 µM (inactive); in assay [12] it was 16.7 µM (inactive). For the same molecule, the GI50 was > 78.7 µM (inactive) in assay [13]; 0.736 µM (active) in [14]; 13.5 µM (inactive) in assay [15]; 8.13 µM (inactive) in assay [16]; 11.8 µM (inactive) in assay [17]; 3.83 µM (inactive) in [18]. For the same molecule, the GI50 in assay [19] was 5.06 µM (inactive); in [20], 2.89 µM (inactive).

As for `O=C1C(=Cc2ccco2)C(=O)C2CCCCC12` (stereo not given), the GI50 in assay [1], in assay [2], in assay [3], in [4], in assay [5] and in assay [6] was > 100 µM (inactive) in each case. Besides, the GI50 in [7], in assay [8], in [9], in assay [10], in assay [11] and in [12] was > 100 µM (inactive) throughout. The GI50 in assay [13], in [14], in assay [15], in assay [16], in assay [17] and in [18] was > 100 µM (inactive) each time. The GI50 in [19] and in assay [20] was > 100 µM (inactive) throughout.

Regarding `O=C(CCc1cc(O)cc(O)c1)NCCCNC(=O)CCc1cc(O)cc(O)c1`, the GI50 in [1], in [2], in [3], in assay [4], in assay [5] and in assay [6] was > 100 µM (inactive) each time. Further, the GI50 in [7], in [8], in assay [9], in assay [10], in [11] and in assay [12] was > 100 µM (inactive) each time. In addition, the GI50 in assay [13], in assay [14], in assay [15], in assay [16], in assay [17] and in assay [18] was > 100 µM (inactive) throughout. Besides, the GI50 in [19] and in assay [20] was > 100 µM (inactive) in each case.

For `COc1cc(O)c2c(=O)c3ccccc3n(C)c2c1`, the GI50 in assay [1] was > 100 µM (inactive); in [2] it was > 100 µM (inactive); in assay [3], > 100 µM (inactive); in assay [4], 46.1 µM (inactive); in assay [5] it was > 100 µM (inactive); in assay [6] it was > 100 µM (inactive). In addition, the GI50 in [7] is > 100 µM (inactive); in [8], > 100 µM (inactive); in assay [9], > 100 µM (inactive); in assay [10] it was 63.8 µM (inactive); in [11], > 100 µM (inactive); in assay [12] it was 53.7 µM (inactive). For the same molecule, the GI50 is > 100 µM (inactive) in assay [13]; 84.5 µM (inactive) in [14]; 21.5 µM (inactive) in [15]; 71.3 µM (inactive) in [16]; > 100 µM (inactive) in assay [17]; 7.26 µM (inactive) in assay [18]. Further, the figures for the GI50 in [19] and in assay [20] were > 100 µM (inactive) and 14.9 µM (inactive), respectively.

As to `CC(=O)NC1CCC(NC(=O)OC(C)(C)C)C(NC(=O)OC(C)(C)C)C1` (stereo not given), the GI50 in [1], in [2], in assay [3], in assay [4], in assay [5] and in assay [6] was > 100 µM (inactive) throughout. The GI50 in assay [7], in assay [8], in assay [9], in assay [10], in assay [11] and in assay [12] was > 100 µM (inactive) each time. In addition, the GI50 in assay [13], in assay [14], in assay [15], in [16], in assay [17] and in assay [18] was > 100 µM (inactive) throughout. In addition, the GI50 in assay [19] and in assay [20] was > 100 µM (inactive) each time.

With `OC1[C@@H]2[C@@H](O)CCCN2C[C@@H](O)[C@H]1O` (stereo not given in full), the GI50 in [1], in [2], in assay [3], in assay [4], in assay [5] and in assay [6] was > 100 µM (inactive) each time. Besides, the GI50 in assay [7], in [8], in assay [9], in assay [10], in assay [11] and in [12] was > 100 µM (inactive) in each case. Besides, the GI50 in assay [13], in assay [14], in [15], in [16], in assay [17] and in assay [18] was > 100 µM (inactive) in each case. Besides, the GI50 in assay [19] and in assay [20] was > 100 µM (inactive) each time.

Turning to `C[C@]12CC[C@@H]3c4ccc(O)cc4CC[C@H]3[C@@H]1C/C(=C\c1ccc(C#N)cc1)C2=O`, the GI50 in [1] was 25 µM (inactive); in [2], 37.3 µM (inactive); in assay [3] it was 36.2 µM (inactive); in assay [4], 26.8 µM (inactive); in assay [5], 21.9 µM (inactive); in assay [6] it was 30.8 µM (inactive). Further, the GI50 in [7] is 28.8 µM (inactive); in [8], 28.3 µM (inactive); in [9], 46.1 µM (inactive); in assay [10], 24.5 µM (inactive); in assay [11], 82.8 µM (inactive); in assay [12] it was 61 µM (inactive). The GI50 is 37.9 µM (inactive) in [13]; 40.8 µM (inactive) in [14]; 35.7 µM (inactive) in [15]; 23.3 µM (inactive) in assay [16]; 41.8 µM (inactive) in [17]; 50 µM (inactive) in assay [18]. Further, the results for the GI50 in assay [19] and in assay [20] were 23.1 µM (inactive) and 14.6 µM (inactive), respectively.

In the case of `COC(=O)c1ccc(CCC2=CC(=O)C(Br)=CC2=O)cc1`, the GI50 is 16 µM (inactive) in [1]; 15.7 µM (inactive) in assay [2]; 16.7 µM (inactive) in [3]; 5.14 µM (inactive) in [4]; 15.3 µM (inactive) in [5]; 19.4 µM (inactive) in [6]. In addition, the GI50 in assay [7] is 17.1 µM (inactive); in assay [8], 16.9 µM (inactive); in [9], 15 µM (inactive); in assay [10], 13.6 µM (inactive); in assay [11], 13.6 µM (inactive); in assay [12], 19.8 µM (inactive). Moreover, the GI50 in [13] was 14.7 µM (inactive); in assay [14], 17.5 µM (inactive); in assay [15], 19.8 µM (inactive); in assay [16], 18.6 µM (inactive); in assay [17] it was 14.7 µM (inactive); in assay [18], 2.97 µM (inactive). For the same molecule, the GI50 in [19] was 15.2 µM (inactive); in [20], 18.3 µM (inactive).

Consider `COC(=O)c1cc2ccc(O)c(O)c2cn1`, for which the GI50 in [1] is 1.52 µM (inactive); in assay [2] it was > 10 µM (inactive); in assay [3], 20.4 µM (inactive); in [4], 12.6 µM (inactive); in [5], 17.1 µM (inactive); in assay [6], 23.6 µM (inactive). In addition, the GI50 in assay [7] was 18.1 µM (inactive); in [8], 14.4 µM (inactive); in assay [9], 17.5 µM (inactive); in assay [10], 16.6 µM (inactive); in [11], 13 µM (inactive); in assay [12], 17.1 µM (inactive). Besides, the GI50 is 18.2 µM (inactive) in assay [13]; 1.96 µM (inactive) in assay [14]; 2.7 µM (inactive) in assay [15]; 10.9 µM (inactive) in [16]; 18.5 µM (inactive) in assay [17]; 4.25 µM (inactive) in assay [18]. Further, the GI50 in [19] is 18.1 µM (inactive); in [20] it was 18 µM (inactive).

Values taken from ChEMBL document CHEMBL1201862, “PubChem BioAssay data set” (2004).
